In patent US9403823B2, “Protein kinase inhibitors” (ORIBASE PHARMA, priority 2012, dated 2016):
Where two headings read alike, the source gives them in different places.

What was measured:
HepG2 cell line = experiment: In vitro cell proliferation assay (MTT), HepG2; format: cell-based; settings: Homo sapiens, read-out: EC50, anti-proliferative activity
Experimental: (§1) 2) In Vitro Cell Proliferation Assays (Table 22 to Table 35)
(§2) Cancer cell lines (5×10^3 cells per well) or HUVEC (1×10^4 cells per well) or HRMEC (1×10^4 cells per well) were distributed in 96-well plates and incubating in duplicate with escalating concentrations (10 nM to 3 μM) of compounds for 72 hr. Cell proliferation was measured using MTT (3[4,5-dimethylthiazol-2-yl]-2,5-diphenyltetrazolium bromide).

MDA-MB-231 cell line = experiment: In vitro cell proliferation assay (MTT), MDA-MB-231; format: cell-based; settings: Homo sapiens; MDA-MB-231, 72 hr, MTT; read-out: EC50, anti-proliferative activity
Experimental: as §1, §2

A549 cell line = experiment: In vitro cell proliferation assay (MTT), A549; format: cell-based; settings: Homo sapiens, read-out: EC50, anti-proliferative activity
Experimental: as §1, §2

BRAF = molecular target: T1, BRAF (Homo sapiens, UniProt P15056); experiment: In vitro kinase assay (Z'-LYTE), BRAF; format: biochemical; settings: read-out: % of inhibition of the kinase compared to the control
T1 construct: purchased Invitrogen
Experimental: (§3) 1) In Vitro Kinase Assays (Table 10 to Table 21)
(§4) The inhibitory activity of the compounds on several kinases including BRAF, EGFR (ErbB1), EGFR (ErbB1) T790M L858R, FGFR2, KDR (VEGFR2), PDGFRA (PDGFR alpha), SRC and other was evaluated by Invitrogen using the Z′-LYTE® technology. Briefly, the Z′-LYTE® biochemical assay employs a fluorescence-based, coupled-enzyme format and is based on the differential sensitivity of phosphorylated and non-phosphorylated peptides to proteolytic cleavage. The peptide substrate is labeled with two fluorophores—one at each end—that make up a FRET pair. A ratiometric method, which calculates the ratio (the Emission Ratio) of donor emission to acceptor emission after excitation of the donor fluorophore at 400 nm, is used to quantitate reaction progress.
(§5) The compounds are screened in 1% DMSO (final) in the well. For 10 point titrations, 3-fold serial dilutions are conducted from the starting concentration. All Peptide/Kinase Mixtures are diluted to a 2× working concentration in the appropriate Kinase Buffer. All ATP Solutions are diluted to a 4× working concentration in Kinase Buffer (50 mM HEPES pH 7.5, 0.01% BRIJ-35, 10 mM MgCl2, 1 mM EGTA). ATP Km apparent is previously determined using a Z′-LYTE® assay.
(§6) Each compound was incubated at a concentration of 100 nM (excepted to test the activity against ABL and ABL T315I for which the compounds were incubated at a concentration of 10 μM) and the tables 10 to 21 summarize the results obtained showing the inhibitory power of a compound.

SRC = molecular target: T2, SRC (Homo sapiens, UniProt P12931); experiment: In vitro kinase assay (Z'-LYTE), SRC; format: biochemical; settings: read-out: % of inhibition of the kinase compared to the control
T2 construct: purchased Invitrogen
Experimental: as §3, §4, §5, §6

EGFR (ErbB1) = molecular target: T3, EGFR (ErbB1) (Homo sapiens, UniProt P00533); experiment: In vitro kinase assay (Z'-LYTE), EGFR (ErbB1); format: biochemical; settings: read-out: % of inhibition of the kinase compared to the control
T3 construct: purchased Invitrogen
Experimental: as §3, §4, §5, §6

KDR (VEGFR2) = molecular target: T4, KDR (VEGFR2) (Homo sapiens, UniProt P35968); experiment: In vitro kinase assay (Z'-LYTE), KDR (VEGFR2); format: biochemical; settings: read-out: % of inhibition of the kinase compared to the control
T4 construct: purchased Invitrogen
Experimental: as §3, §4, §5, §6

PDGFRA (PDGFR alpha) = molecular target: T5, PDGFRA (PDGFR alpha) (Homo sapiens, UniProt P16234); experiment: In vitro kinase assay (Z'-LYTE), PDGFRA; format: biochemical; settings: read-out: % of inhibition of the kinase compared to the control
T5 construct: purchased Invitrogen
Experimental: as §3, §4, §5, §6

FGFR2 = molecular target: T6, FGFR2 (Homo sapiens, UniProt P21802); experiment: In vitro kinase assay (Z'-LYTE), FGFR2; format: biochemical; settings: read-out: % of inhibition of the kinase compared to the control
T6 construct: purchased Invitrogen
Experimental: as §3, §4, §5, §6

HUVEC = experiment: In vitro cell proliferation assay (MTT), HUVEC; format: cell-based; settings: Homo sapiens, read-out: EC50, anti-proliferative activity
Experimental: as §1, §2

EGFR (ErbB1) T790M L858R = molecular target: T7, EGFR (ErbB1) T790M L858R (Homo sapiens, UniProt P00533, L858R/T790M); experiment: In vitro kinase assay (Z'-LYTE), EGFR (ErbB1) T790M L858R; format: biochemical; settings: read-out: % of inhibition of the kinase compared to the control
T7 construct: purchased Invitrogen
Experimental: as §3, §4, §5, §6

T3 sequence (P00533 25-1210): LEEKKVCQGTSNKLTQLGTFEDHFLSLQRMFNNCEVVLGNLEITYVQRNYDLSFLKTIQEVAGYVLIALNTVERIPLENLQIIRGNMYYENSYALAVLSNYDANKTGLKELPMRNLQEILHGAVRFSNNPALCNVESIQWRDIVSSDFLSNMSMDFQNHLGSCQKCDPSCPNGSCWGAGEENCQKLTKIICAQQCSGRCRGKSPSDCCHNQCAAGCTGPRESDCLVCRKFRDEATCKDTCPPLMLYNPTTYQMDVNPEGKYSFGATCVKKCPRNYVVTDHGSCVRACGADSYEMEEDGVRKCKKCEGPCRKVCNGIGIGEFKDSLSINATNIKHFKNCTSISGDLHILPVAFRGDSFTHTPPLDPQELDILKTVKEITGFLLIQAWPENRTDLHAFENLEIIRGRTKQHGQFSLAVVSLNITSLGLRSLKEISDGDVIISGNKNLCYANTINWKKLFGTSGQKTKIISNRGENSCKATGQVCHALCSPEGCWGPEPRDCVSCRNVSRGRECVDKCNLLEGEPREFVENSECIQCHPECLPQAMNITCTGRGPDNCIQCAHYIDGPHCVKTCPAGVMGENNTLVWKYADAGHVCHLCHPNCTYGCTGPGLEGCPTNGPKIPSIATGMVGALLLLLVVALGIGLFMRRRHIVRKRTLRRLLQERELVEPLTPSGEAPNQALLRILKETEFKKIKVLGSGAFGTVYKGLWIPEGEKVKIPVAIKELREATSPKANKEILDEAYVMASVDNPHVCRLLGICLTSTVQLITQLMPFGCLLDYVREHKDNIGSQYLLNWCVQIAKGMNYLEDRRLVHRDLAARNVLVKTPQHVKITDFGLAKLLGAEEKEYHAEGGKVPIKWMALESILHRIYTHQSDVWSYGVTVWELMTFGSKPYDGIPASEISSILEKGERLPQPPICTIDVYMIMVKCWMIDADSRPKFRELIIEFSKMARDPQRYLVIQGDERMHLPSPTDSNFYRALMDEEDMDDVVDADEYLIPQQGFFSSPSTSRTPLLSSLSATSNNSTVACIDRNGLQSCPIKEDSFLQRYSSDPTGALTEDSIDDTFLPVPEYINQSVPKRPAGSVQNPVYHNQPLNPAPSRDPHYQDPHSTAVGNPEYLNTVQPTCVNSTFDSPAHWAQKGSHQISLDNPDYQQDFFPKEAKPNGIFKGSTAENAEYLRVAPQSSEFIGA
T2 sequence (P12931 whole entry): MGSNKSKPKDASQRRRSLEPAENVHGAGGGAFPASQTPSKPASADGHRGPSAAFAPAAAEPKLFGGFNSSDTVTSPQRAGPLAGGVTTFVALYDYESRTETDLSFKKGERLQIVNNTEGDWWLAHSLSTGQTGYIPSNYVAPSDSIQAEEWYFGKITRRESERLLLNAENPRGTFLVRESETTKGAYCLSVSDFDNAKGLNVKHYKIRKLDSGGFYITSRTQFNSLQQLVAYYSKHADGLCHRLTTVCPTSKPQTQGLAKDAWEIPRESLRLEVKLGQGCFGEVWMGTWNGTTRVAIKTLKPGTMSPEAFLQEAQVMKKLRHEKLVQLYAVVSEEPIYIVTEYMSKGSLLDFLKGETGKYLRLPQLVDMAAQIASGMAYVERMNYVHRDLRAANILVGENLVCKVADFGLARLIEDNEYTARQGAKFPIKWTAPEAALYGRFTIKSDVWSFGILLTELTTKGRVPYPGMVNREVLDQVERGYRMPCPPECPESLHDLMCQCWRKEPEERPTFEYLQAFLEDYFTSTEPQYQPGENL
T4 sequence (P35968 20-1356): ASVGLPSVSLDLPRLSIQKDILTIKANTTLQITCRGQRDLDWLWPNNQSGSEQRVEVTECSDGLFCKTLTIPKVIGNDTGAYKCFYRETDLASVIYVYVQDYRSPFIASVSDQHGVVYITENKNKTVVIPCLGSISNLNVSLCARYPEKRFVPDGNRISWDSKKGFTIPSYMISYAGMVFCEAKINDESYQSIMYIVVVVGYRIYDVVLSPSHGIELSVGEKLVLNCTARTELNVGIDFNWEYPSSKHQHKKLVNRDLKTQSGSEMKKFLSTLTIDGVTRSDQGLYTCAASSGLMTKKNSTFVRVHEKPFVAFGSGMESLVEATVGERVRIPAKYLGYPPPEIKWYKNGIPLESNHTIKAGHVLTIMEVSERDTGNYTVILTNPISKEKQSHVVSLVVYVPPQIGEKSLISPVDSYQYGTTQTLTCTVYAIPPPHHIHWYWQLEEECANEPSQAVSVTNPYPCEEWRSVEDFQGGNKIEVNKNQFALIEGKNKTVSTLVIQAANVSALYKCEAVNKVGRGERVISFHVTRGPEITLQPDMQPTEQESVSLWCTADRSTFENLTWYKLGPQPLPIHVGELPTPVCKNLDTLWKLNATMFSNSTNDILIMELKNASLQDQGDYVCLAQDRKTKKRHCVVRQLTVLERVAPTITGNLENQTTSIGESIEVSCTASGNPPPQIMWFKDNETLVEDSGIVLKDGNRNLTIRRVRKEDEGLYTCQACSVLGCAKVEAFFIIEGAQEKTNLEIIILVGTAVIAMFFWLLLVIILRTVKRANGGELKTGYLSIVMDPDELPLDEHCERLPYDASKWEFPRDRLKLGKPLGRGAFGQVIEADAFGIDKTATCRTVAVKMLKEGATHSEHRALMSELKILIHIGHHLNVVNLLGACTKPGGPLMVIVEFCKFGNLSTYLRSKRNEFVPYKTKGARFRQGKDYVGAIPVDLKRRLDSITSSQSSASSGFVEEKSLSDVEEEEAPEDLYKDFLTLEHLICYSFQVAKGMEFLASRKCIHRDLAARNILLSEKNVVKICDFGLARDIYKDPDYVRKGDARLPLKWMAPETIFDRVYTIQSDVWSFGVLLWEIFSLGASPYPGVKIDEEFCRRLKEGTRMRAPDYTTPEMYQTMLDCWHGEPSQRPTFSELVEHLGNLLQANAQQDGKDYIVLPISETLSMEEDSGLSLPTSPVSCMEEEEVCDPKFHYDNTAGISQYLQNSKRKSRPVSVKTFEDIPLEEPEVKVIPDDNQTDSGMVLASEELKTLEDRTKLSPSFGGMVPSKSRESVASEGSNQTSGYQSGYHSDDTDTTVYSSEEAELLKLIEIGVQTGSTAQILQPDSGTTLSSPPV
T1 sequence (P15056 whole entry): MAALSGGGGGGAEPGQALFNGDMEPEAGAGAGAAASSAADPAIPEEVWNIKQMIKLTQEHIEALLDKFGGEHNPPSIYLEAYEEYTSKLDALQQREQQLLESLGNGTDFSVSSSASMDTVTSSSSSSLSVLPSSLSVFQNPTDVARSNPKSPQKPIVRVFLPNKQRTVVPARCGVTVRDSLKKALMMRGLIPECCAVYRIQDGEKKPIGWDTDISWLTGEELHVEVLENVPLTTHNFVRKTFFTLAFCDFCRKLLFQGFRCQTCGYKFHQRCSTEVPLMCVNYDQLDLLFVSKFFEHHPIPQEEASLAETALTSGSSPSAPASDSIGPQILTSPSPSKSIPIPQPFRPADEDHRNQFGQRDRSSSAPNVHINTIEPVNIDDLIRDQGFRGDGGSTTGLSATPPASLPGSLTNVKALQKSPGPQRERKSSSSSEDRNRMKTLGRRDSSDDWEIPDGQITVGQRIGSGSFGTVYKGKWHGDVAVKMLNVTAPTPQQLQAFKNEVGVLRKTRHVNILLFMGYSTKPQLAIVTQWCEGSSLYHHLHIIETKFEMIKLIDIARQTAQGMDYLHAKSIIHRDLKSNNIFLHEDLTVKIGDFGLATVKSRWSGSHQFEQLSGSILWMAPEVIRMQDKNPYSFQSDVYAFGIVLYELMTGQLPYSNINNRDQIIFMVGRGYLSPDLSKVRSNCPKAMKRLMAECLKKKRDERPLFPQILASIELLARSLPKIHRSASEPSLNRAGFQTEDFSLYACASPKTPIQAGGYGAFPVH
T6 sequence (P21802 22-821): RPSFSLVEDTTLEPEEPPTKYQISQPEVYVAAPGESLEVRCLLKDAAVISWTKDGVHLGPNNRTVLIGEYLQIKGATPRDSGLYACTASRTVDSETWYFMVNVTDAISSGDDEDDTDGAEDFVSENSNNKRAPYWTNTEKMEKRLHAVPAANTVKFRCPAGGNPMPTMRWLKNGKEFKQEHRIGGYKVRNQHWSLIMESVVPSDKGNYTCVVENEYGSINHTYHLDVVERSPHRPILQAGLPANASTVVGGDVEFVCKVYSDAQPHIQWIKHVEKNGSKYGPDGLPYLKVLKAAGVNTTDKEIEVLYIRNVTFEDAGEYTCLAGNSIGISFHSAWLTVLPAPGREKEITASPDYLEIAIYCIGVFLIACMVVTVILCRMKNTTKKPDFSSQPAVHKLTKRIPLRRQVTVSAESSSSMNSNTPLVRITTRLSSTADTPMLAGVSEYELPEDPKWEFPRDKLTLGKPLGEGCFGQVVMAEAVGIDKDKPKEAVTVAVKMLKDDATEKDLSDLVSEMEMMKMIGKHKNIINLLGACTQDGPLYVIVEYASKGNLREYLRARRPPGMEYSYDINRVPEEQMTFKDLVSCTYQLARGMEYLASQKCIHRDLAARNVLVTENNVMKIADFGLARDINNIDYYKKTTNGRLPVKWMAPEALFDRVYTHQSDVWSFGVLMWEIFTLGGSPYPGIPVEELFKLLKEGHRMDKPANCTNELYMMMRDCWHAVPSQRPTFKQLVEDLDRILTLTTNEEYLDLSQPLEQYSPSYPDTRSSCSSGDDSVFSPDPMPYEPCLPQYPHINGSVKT

Structure (SMILES)	EC50 (HepG2 cell line; HepG2, 72 hr, MTT) [nM]	EC50 (MDA-MB-231 cell line) [nM]	EC50 (A549 cell line; A549, 72 hr, MTT) [nM]	inhibition at 0.1 µM (BRAF) [%]	inhibition at 0.1 µM (SRC) [%]	inhibition at 0.1 µM (EGFR (ErbB1)) [%]	inhibition at 0.1 µM (KDR (VEGFR2)) [%]	inhibition at 0.1 µM (PDGFRA (PDGFR alpha)) [%]	inhibition at 0.1 µM (FGFR2) [%]	EC50 (HepG2 cell line; HepG2, 72 h) [nM]	EC50 (A549 cell line; A549, 72 h) [nM]	inhibition at 0.1 µM (EGFR (ErbB1) T790M L858R) [%]	EC50 (HUVEC; 72 hr, MTT) [nM]	EC50 (HUVEC; 72 h) [nM]
Cc1ccc(NC(=O)c2cncc(C(F)(F)F)c2)cc1C(=S)Nc1cnc2[nH]c(C(=O)O)cc2c1 [OR1053]	≥ 1000	≥ 1000	≥ 1000	< 50	≥ 50	≥ 50	< 50	≥ 50	< 50				≥ 1000	
C#Cc1cccc(Nc2ncnc3cc(OCCOC)c(OCCOC)cc23)c1 [Erlotinib, reference compound]			≥ 1000											
CC(=O)c1cc2cc(NCc3cc(NC(=O)C4CC4)ccc3C)cnc2[nH]1 [OR0929, Cyclopropanecarboxylic acid {3-[(2-acetyl-1H-pyrrolo[2,3-b]pyridin-5-ylamino)-methyl]-4-methyl-phenyl}-amide]	≥ 1000			< 50	< 50	< 50	< 50	< 50	< 50				≥ 1000	
CCN(CC)C(=O)c1cc2cc(NCc3cc(NC(=O)c4ccc(CN5CCN(C)CC5)c(C(F)(F)F)c4)ccc3C)cnc2[nH]1 [OR1076, 5-{2-Methyl-5-[4-(4-methyl-piperazin-1-ylmethyl)-3-trifluoromethyl-benzoylamino]-benzylamino}-1H-pyrrolo[2,3-b]pyridine-2-carboxylic acid diethylamide]											100 to 1000			
CC(=O)c1cc2cc(NCc3cccc(NC(=O)c4cncc(C(F)(F)F)c4)c3)cnc2[nH]1 [OR0950, N-{3-[(2-Acetyl-1H-pyrrolo[2,3-b]pyridin-5-ylamino)-methyl]-phenyl}-5-trifluoromethyl-nicotinamide]				≥ 50	< 50	< 50	≥ 50	≥ 50	< 50	100 to 1000			≥ 1000	
Cc1ccc(NC(=O)c2ccc(CN3CCN(C)CC3)cc2)cc1CNc1cnc2[nH]c(C(=O)O)cc2c1 [OR0692, 5-{2-Methyl-5-[4-(4-methyl-piperazin-1-ylmethyl)-benzoylamino]-benzylamino}-1H-pyrrolo[2,3-b]pyridine-2-carboxylic acid]				< 50	≥ 50	≥ 50	≥ 50	≥ 50	< 50			< 50		
CC(=O)c1cc2cc(NCc3cc(NC(=O)Nc4cccnc4)ccc3C)cnc2[nH]1 [OR0897, 1-{3-[(2-Acetyl-1H-pyrrolo[2,3-b]pyridin-5-ylamino)-methyl]-4-methyl-phenyl}-3-pyridin-3-yl-urea]				≥ 50	< 50	< 50	< 50	≥ 50	< 50	≤ 100			≥ 1000	

Continued, in another order:

EC50 (HepG2 cell line; HepG2, 72 hr, MTT) [nM]	EC50 (MDA-MB-231 cell line) [nM]	EC50 (A549 cell line; A549, 72 hr, MTT) [nM]	inhibition at 0.1 µM (BRAF) [%]	inhibition at 0.1 µM (SRC) [%]	inhibition at 0.1 µM (EGFR (ErbB1)) [%]	inhibition at 0.1 µM (KDR (VEGFR2)) [%]	inhibition at 0.1 µM (PDGFRA (PDGFR alpha)) [%]	inhibition at 0.1 µM (FGFR2) [%]	EC50 (HepG2 cell line; HepG2, 72 h) [nM]	EC50 (A549 cell line; A549, 72 h) [nM]	inhibition at 0.1 µM (EGFR (ErbB1) T790M L858R) [%]	Structure (SMILES)	EC50 (HUVEC; 72 hr, MTT) [nM]	EC50 (HUVEC; 72 h) [nM]
			≥ 50	< 50	< 50	< 50	≥ 50	< 50	100 to 1000			CC(=O)c1cc2cc(NCc3cc(NC(=O)Cc4cccc(C(F)(F)F)c4)ccc3C)cnc2[nH]1 [OR0968, N-{3-[(2-Acetyl-1H-pyrrolo[2,3-b]pyridin-5-ylamino)-methyl]-4-methyl-phenyl}-2-(3-trifluoromethyl-phenyl)-acetamide]	≥ 1000	
≥ 1000			≥ 50	≥ 50	< 50	≥ 50	≥ 50	< 50				CC(=O)c1cc2cc(NCc3cc(NC(=O)c4cncc(C)c4)ccc3C)cnc2[nH]1 [OR0888, N-{3-[(2-Acetyl-1H-pyrrolo[2,3-b]pyridin-5-ylamino)-methyl]-4-methyl-phenyl}-5-methyl-nicotinamide]		100 to 1000
≥ 1000			≥ 50	< 50	< 50	< 50	≥ 50	< 50				CC(=O)c1cc2cc(NCc3cc(NC(=O)c4ccnc(C)c4)ccc3C)cnc2[nH]1 [OR0889, N-{3-[(2-Acetyl-1H-pyrrolo[2,3-b]pyridin-5-ylamino)-methyl]-4-methyl-phenyl}-2-methyl-isonicotinamide]		100 to 1000
			≥ 50	< 50	< 50	< 50	≥ 50	< 50	100 to 1000			CC(=O)c1cc2cc(NCc3cc(NC(=O)c4ccc5[nH]ccc5c4)ccc3C)cnc2[nH]1 [OR0980, 1H-Indole-5-carboxylic acid {3-[(2-acetyl-1H-pyrrolo[2,3-b]pyridin-5-ylamino)-methyl]-4-methyl-phenyl}-amide]	≥ 1000	
			< 50	≥ 50	≥ 50	< 50	≥ 50	< 50	100 to 1000			CC(=O)c1cc2cc(NCc3cc(NC(=O)c4ccc(C)c(C(F)(F)F)c4)ccc3C)cnc2[nH]1 [OR0890, N-{3-[(2-Acetyl-1H-pyrrolo[2,3-b]pyridin-5-ylamino)-methyl]-4-methyl-phenyl}-4-methyl-3-trifluoromethyl-benzamide]		100 to 1000
≥ 1000			≥ 50	< 50	< 50	≥ 50	≥ 50	< 50				CC(=O)c1cc2cc(NCc3cc(NC(=O)c4ccn[nH]4)ccc3C)cnc2[nH]1 [OR0987, 2H-Pyrazole-3-carboxylic acid {3-[(2-acetyl-1H-pyrrolo[2,3-b]pyridin-5-ylamino)-methyl]-4-methyl-phenyl}-amide]	≥ 1000	
			< 50	< 50	< 50	< 50	≥ 50	< 50	100 to 1000			CC(=O)c1cc2cc(NCc3cc(NC(=O)Nc4cccc(C(F)(F)F)c4)ccc3C)cnc2[nH]1 [OR0895, 1-{3-[(2-Acetyl-1H-pyrrolo[2,3-b]pyridin-5-ylamino)-methyl]-4-methyl-phenyl}-3-(3-trifluoromethyl-phenyl)-urea]	≥ 1000	
			< 50	< 50	< 50	< 50	< 50	< 50	100 to 1000			CC(=O)c1cc2cc(NCc3cc(NC(=O)c4ccc(Cl)c(C(F)(F)F)c4)ccc3C)cnc2[nH]1 [OR0891, N-{3-[(2-Acetyl-1H-pyrrolo[2,3-b]pyridin-5-ylamino)-methyl]-4-methyl-phenyl}-4-chloro-3-trifluoromethyl-benzamide]		100 to 1000
≥ 1000			< 50	< 50	< 50	< 50	< 50	< 50				CC(=O)c1cc2cc(NCc3cc(NC(=O)c4ccncn4)ccc3C)cnc2[nH]1 [OR0988, Pyrimidine-4-carboxylic acid {3-[(2-acetyl-1H-pyrrolo[2,3-b]pyridin-5-ylamino)-methyl]-4-methyl-phenyl}-amide]	≥ 1000	
